How the values were obtained:
Assay in all cases: Cell growth assay
Format in all cases: cell-based
NCI-H322 = conditions: Homo sapiens, 72 h; NCI-H322, RAF WT, RAS WT, 3-day; read-out: gIC50
Summary of the method: (§1)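 Using a zero-time reference and a 72 h endpoint, growth was measured by CellTiter-Glo luminescence. gIC50 values for growth inhibition are given.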

SK-UT-1 = conditions: Homo sapiens, 72 h; SK-UT-1, RAF WT, RAS WT, 3-day; read-out: gIC50
Summary of the method: as §1

SNB-19 = conditions: Homo sapiens, 72 h; SNB-19, RAF WT, RAS WT, 3-day; read-out: gIC50
Summary of the method: as §1

JRT3-T35 = conditions: Homo sapiens, J-RT3-T3-5, 72 h; JRT3-T35, RAF WT, RAS WT, 3-day; read-out: gIC50
Summary of the method: as §1

U251 = conditions: Homo sapiens, U-251, 72 h; U251, RAF WT, RAS WT, 3-day; read-out: gIC50
Summary of the method: as §1

SF-295 = conditions: Homo sapiens, 72 h; SF-295, RAF WT, RAS WT, 3-day; read-out: gIC50
Summary of the method: as §1

Calu-6 = conditions: Homo sapiens, 72 h; Calu-6, RAF WT, KRAS(Q61K), 3-day; read-out: gIC50
Summary of the method: as §1

OVCAR-4 = conditions: Homo sapiens, 72 h; OVCAR-4, RAF WT, RAS WT, 3-day; read-out: gIC50
Summary of the method: as §1

NCI-H209 = conditions: Homo sapiens, 72 h; NCI-H209, RAF WT, RAS WT, 3-day; read-out: gIC50
Summary of the method: as §1

NCI-N87 = conditions: Homo sapiens, 72 h; NCI-N87, RAF WT, RAS WT, 3-day; read-out: gIC50
Summary of the method: as §1

HL-60 = conditions: Homo sapiens, 72 h; HL-60, RAF WT, RAS WT, 3-day; read-out: gIC50
Summary of the method: as §1

MC-IXC = conditions: Homo sapiens, 72 h, RAF WT, RAS WT, 3-day, read-out: gIC50
Summary of the method: as §1

RPMI-8226 = conditions: Homo sapiens, 72 h; RPMI-8226, RAF WT, RAS WT, 3-day; read-out: gIC50
Summary of the method: as §1

SN12C = conditions: Homo sapiens, 72 h, RAF WT, RAS WT, 3-day, read-out: gIC50
Summary of the method: as §1

NCI-H747 = conditions: Homo sapiens, 72 h; NCI-H747, RAF WT, KRAS(G13D), 3-day; read-out: gIC50
Summary of the method: as §1

SW1990 = conditions: Homo sapiens, 72 h; SW1990, RAF WT, RAS WT, 3-day; read-out: gIC50
Summary of the method: as §1

SK-LMS-1 = conditions: Homo sapiens, 72 h; SK-LMS-1, RAF WT, RAS WT, 3-day; read-out: gIC50
Summary of the method: as §1

SW579 = conditions: Homo sapiens, 72 h; SW579, RAF WT, RAS WT, 3-day; read-out: gIC50
Summary of the method: as §1

H4 = conditions: Homo sapiens, 72 h; H4, RAF WT, RAS WT, 3-day; read-out: gIC50
Summary of the method: as §1

NCI-H526 = conditions: Homo sapiens, 72 h; NCI-H526, RAF WT, RAS WT, 3-day; read-out: gIC50
Summary of the method: as §1

MDA-MB-231 = conditions: Homo sapiens, 72 h; MDA-MB-231, BRAF(G464V), KRAS(G13D), 3-day; read-out: gIC50
Summary of the method: as §1

CHP-212 = conditions: Homo sapiens, 72 h; CHP-212, RAF WT, NRAS(Q61K), 3-day; read-out: gIC50
Summary of the method: as §1

CAL-27 = conditions: Homo sapiens, 72 h; CAL-27, RAF WT, RAS WT, 3-day; read-out: gIC50
Summary of the method: as §1

NCI-H2228 = conditions: Homo sapiens, 72 h; NCI-H2228, RAF WT, RAS WT, 3-day; read-out: gIC50
Summary of the method: as §1

SNU-1 = conditions: Homo sapiens, SNU1, 72 h; SNU-1, RAF WT, RAS WT, 3-day; read-out: gIC50
Summary of the method: as §1

Daudi = conditions: Homo sapiens, 72 h, RAF WT, RAS WT, 3-day, read-out: gIC50
Summary of the method: as §1

OE-33 = conditions: Homo sapiens, OE33, 72 h; OE-33, RAF WT, RAS WT, 3-day; read-out: gIC50
Summary of the method: as §1

A2780 = conditions: Homo sapiens, 72 h; A2780, RAF WT, RAS WT, 3-day; read-out: gIC50
Summary of the method: as §1

22Rv1 = conditions: Homo sapiens, 72 h; 22Rv1, RAF WT, RAS WT, 3-day; read-out: gIC50
Summary of the method: as §1

MES-SA = conditions: Homo sapiens, 72 h, RAF WT, RAS WT, 3-day, read-out: gIC50
Summary of the method: as §1

BxPc3 = conditions: Homo sapiens, BXPC-3, 72 h; BxPc3, RAF WT, RAS WT, 3-day; read-out: gIC50
Summary of the method: as §1

Molt-4 = conditions: Homo sapiens, 72 h; Molt-4, RAF WT, RAS WT, 3-day; read-out: gIC50
Summary of the method: as §1

## CC(C)(C)c1nc(-c2cccc(NS(=O)(=O)c3c(F)cccc3F)c2F)c(-c2ccnc(N)n2)s1 [dabrafenib]
NCI-H322
  IC50: > 10 µM
SK-UT-1
  IC50: > 10 µM
SNB-19
  IC50: > 10 µM
JRT3-T35
  IC50: 0.295 µM
U251
  IC50: > 10 µM
SF-295
  IC50: > 10 µM
Calu-6
  IC50: > 10 µM
OVCAR-4
  IC50: > 10 µM
NCI-H209
  IC50: > 10 µM
NCI-N87
  IC50: > 10 µM
HL-60
  IC50: 2.18 µM
MC-IXC
  IC50: > 10 µM
RPMI-8226
  IC50: 0.263 µM
SN12C
  IC50: > 10 µM
NCI-H747
  IC50: > 10 µM
SW1990
  IC50: > 10 µM
SK-LMS-1
  IC50: > 10 µM
SW579
  IC50: > 10 µM
H4
  IC50: 0.619 µM
NCI-H526
  IC50: > 10 µM
MDA-MB-231
  IC50: > 10 µM
CHP-212
  IC50: > 10 µM
CAL-27
  IC50: > 10 µM
NCI-H2228
  IC50: > 10 µM
SNU-1
  IC50: 1.5 µM
Daudi
  IC50: > 10 µM
OE-33
  IC50: > 10 µM
A2780
  IC50: > 10 µM
22Rv1
  IC50: > 10 µM
MES-SA
  IC50: 6.99 µM
BxPc3
  IC50: > 10 µM
Molt-4
  IC50: > 10 µM

From paper PMC3701070 (PLoS ONE, 2013)
